In one data set the test system is MEC1. Kind of data set: Viability test (CellTiter-Blue/EZ4U) on MEC1 cells, 48 h. The format is cell-based, human. Particulars: 48 h incubation, nd = no significant cytotoxic activity up to 100 μM. As to the method: (§1) JURKAT and CCRF-CEM (T-cell acute lymphoblastic leukemia), HL60 and K562 representing acute and chronic myeloid leukemia, respectively, the chronic lymphocytic leukemia cell line MEC-1, and the diffuse large B-cell lymphoma cell line U-2940 were cultured in Gibco RPMI 1640+GlutaMAX (Life Technologies, Carlsbad, Calif., USA) supplemented with 10% fetal bovine serum gold (FBS gold; PAA Laboratories, Pasching, Austria) and 1% PenStrep (100 U/ml penicillin and 100 μg/ml streptomycin; PAA Laboratories), and maintained at 37° C. in humidified atmosphere with 5% CO2. The diffuse large B-cell lymphoma cell line OCI-LY7 was cultured in Gibco IMDM+GlutaMAX and 25 mM HEPES (Life Technologies) containing 20% FBS gold and 1% PenStrep.
(§2) All experiments with hematological cell lines were done using phenol red-free RPMI 1640+L-glutamine (PAA Laboratories) supplemented with 1% PenStrep and 10% FBS gold, except experiments with OCI-Ly7 which were carried out in Gibco IMEM+GlutaMAX and 25 mM HEPES containing 20% FBS gold and 1% PenStrep. Cells were incubated in triplicates with increasing concentrations of the compounds for 48 h, changes in viability were determined using the cell proliferation and cytotoxicity assays EZ4U (Biomedica Group, Austria) and CellTiter-Blue Cell Viability Assay (Promega, Madison, Wis., USA) following instructions of the manufacturers. IC50 values were calculated from two independent experiments using GraphPad Prism 5 software.
(§3) Initially, compounds were biologically tested in six concentration steps (0.1 μM; 1 μM; 5 μM; 10 μM; 50 μM; and 100 μM) using the CellTiter-Blue Cell Viability Assay (Promega, Madison, Wis., USA) and an incubation time of 48 hours. […] IC50 values were calculated from at least two independent experiments with 3 replicates each. In order to evaluate the biologic activity of the new compounds, cytotoxicity was compared to that of fludarabine, an already approved drug for the treatment of various B-cell malignancies. […] Differences in IC50 values for the different cell types can be explained by the biological and genetic particularities of each subtype of B-cell Non-Hodgkin lymphoma (Stacchini A et al. Leukemia Res 1999, 23, 127-136; Sambade C et al. Int J Cancer 2006, 118, 555-563; Chang H et al. Leukemia lymphoma 1995, 19, 165-171; Tweeddale M E et al. Blood 1987, 69, 1307-1314; Tweeddale M et al. Blood 1989, 74, 572-578).
For orientation: The colour change of resazurin is a common sign of viable cells or microbes.

For another data set, the system named is M2-10B4. In words: Viability test on mouse fibroblast cell line M2-10B4, 48 h. The format is cell-based. Conditions: for IC50: 48 h incubation, mouse fibroblast cell line. How it is done:
as §2
Structurally seen, the small molecule compound 1 represents a typical chalcone scaffold. It is characterized by an ortho-ethoxy-substituted phenyl part as ring A and a 2-naphthyl moiety symbolizing ring B. The focus of the present study was to guide the systematic identification of a growth inhibitor with specificity to neoplastic cells, as cytotoxicity towards healthy cells is mostly associated with adverse effects, which can be related to morbidity and mortality of the patient (Milligan D W et al. Brit J Haematol 2006, 135, 450-474). To discriminate in vitro between structural elements necessary for potent cytotoxicity towards tumor cells which, at the same time, clearly show less activity on normal cells, the compounds were additionally tested on the murine bone marrow fibroblast cell line M2-10B4. This cell line is regularly used as feeder layer when cultured with patient cells providing additional support and survival signals in particular in drug screens (Kurtova A V et al. Blood 2009, 114, 4441-4450).
as §3

The test system of a further data set is U-2940. In words: Viability test on U-2940 cells, 48 h. Particulars: 48 h incubation, nd = no significant cytotoxic activity up to 100 μM. Format: cell-based, human. As to the method: as §1, §2, §3
In a further data set the test system is OCI-Ly7. Kind of data set: Viability test on OCI-Ly7 cells, 48 h. Format: cell-based, human. Particulars: 48 h incubation, nd = no significant cytotoxic activity up to 100 μM. How it is done:
as §1, §2, §3

The source of these data is patent US10280156B2, “Heteroaromatic chalcone derivatives and their medical use” (Medizinische Universität Wien, priority 2014, dated 2019).

Take `CCOc1ccccc1C(=O)/C=C/c1ccc2ccccc2c1` [Compound 1, 3-(2-Napthyl)-1-(2-ethoxyphenyl)-2-propen-1-one]: the melting point was in the range of 96 to 97 °C. Besides, in the data set on MEC1 (Homo sapiens, MEC1, 48 h), the IC50 came out at 0.06 µM. In the data set with M2-10B4 (Mus musculus, M210B4, 48 h), this compound displayed an IC50 of 7.8 µM. Also, the IC50 in the data set with U-2940 stood at 4.43 µM. This compound registered an IC50 in the data set on U-2940 (Homo sapiens, U-2940, 48 h) of 2.43 µM. This compound also displayed an IC50 in the data set on OCI-Ly7 (Homo sapiens, OCI-Ly7, 48 h) of 0.06 µM.
`CC(C)Oc1ccccc1C(=O)/C=C/c1ccc2ccccc2c1` [Compound 5]: the melting point was 82 to 85 °C. For the same compound, the IC50 in the data set with MEC1 (Homo sapiens, MEC1, 48 h) worked out at 1.17 µM. This compound yielded an IC50 in the data set on M2-10B4 (Mus musculus, M210B4, 48 h) of over 100 µM. In the data set with U-2940 (Homo sapiens, U-2940, 48 h), this compound yielded an IC50 of 11.1 µM. Also, inhibition in the data set on OCI-Ly7 (Homo sapiens, OCI-Ly7, 48 h) was half-maximal at 0.15 µM (IC50).
For the compound `C=Cc1cccc(/C=C/C(=O)c2ccccc2OCC)c1` [Compound 8, 3-(3-Ethenylphenyl)-1-(2-ethoxyphenyl)-2-propen-1-one], the IC50 was 0.2 µM with MEC1 (Homo sapiens, MEC1, 48 h); over 100 µM with M2-10B4 (Mus musculus, M210B4, 48 h); 2.5 µM with U-2940 (Homo sapiens, U-2940, 48 h); 0.5 µM in the data set on OCI-Ly7 (Homo sapiens, OCI-Ly7, 48 h). In the data set on M2-10B4 (mouse fibroblasts), the “cytotoxic potential on M2-10B4 (in words)” value is on record as “did not show any activity”.
The compound `CCOc1ccccc1C(=O)/C=C/c1ccc2c(c1)OCO2` [Compound 9, 3-(1,3-Benzodioxol-5-yl)-1-(2-ethoxyphenyl)-2-propen-1-one] showed a melting point of 65 to 70 °C. For the same compound, the IC50 in the data set on MEC1 (Homo sapiens, MEC1, 48 h) was 1.1 µM. In the data set with M2-10B4 (Mus musculus, M210B4, 48 h), this compound displayed an IC50 of over 100 µM. In the data set with U-2940 (Homo sapiens, U-2940, 48 h), this compound had an IC50 of 9.49 µM. For the same compound, the IC50 in the data set with OCI-Ly7 (Homo sapiens, OCI-Ly7, 48 h) came to 0.13 µM.
With `CCOc1ccccc1C(=O)/C=C/c1cccc2ccccc12` [Compound 10, 1-(2-Ethoxyphenyl)-3-(1-naphthyl)-2-propen-1-one], the melting point was in the range of 109 to 110 °C. In the data set with MEC1 (Homo sapiens, MEC1, 48 h), this compound had an IC50 of 1.9 µM. The same compound returned a half-maximal inhibitory concentration (IC50) with M2-10B4 of 17.1 µM. In the data set on M2-10B4 (Mus musculus, M210B4, 48 h), this compound came in with an IC50 of 14.1 µM. Further, in the data set with U-2940 (Homo sapiens, U-2940, 48 h), half-maximal inhibition (IC50) required 7.37 µM. Besides, in the data set on OCI-Ly7 (Homo sapiens, OCI-Ly7, 48 h), half-maximal inhibition (IC50) required 1.48 µM.
With `CCOc1ccccc1C(=O)/C=C/c1c2ccccc2cc2ccccc12` [Compound 11, 3-(9-Anthranyl)-1-(2-ethoxyphenyl)-2-propen-1-one], the IC50 with MEC1 was over 100 µM; in the data set with MEC1 (Homo sapiens, MEC1, 48 h) it was over 50 µM; in the data set on M2-10B4 (Mus musculus, M210B4, 48 h), over 50 µM; in the data set on U-2940 it was over 100 µM; with U-2940 (Homo sapiens, U-2940, 48 h) it was over 50 µM; in the data set with OCI-Ly7, over 100 µM. In the data set on OCI-Ly7 (Homo sapiens, OCI-Ly7, 48 h), the IC50 was over 50 µM.
For `CCOc1ccccc1C(=O)/C=C/c1cc2ccccc2c2ccccc12` [Compound 12, 1-(2-Ethoxyphenyl)-3-(9-phenanthrenyl)-2-propen-1-one], the melting point lay within 117 to 120 °C. The compound also yielded an IC50 in the data set with MEC1 (Homo sapiens, MEC1, 48 h) of 1.63 µM. In the data set with M2-10B4 (Mus musculus, M210B4, 48 h), the IC50 was over 100 µM. This compound had an IC50 with U-2940 (Homo sapiens, U-2940, 48 h) of 39.9 µM.
The compound `CCOc1ccccc1C(=O)/C=C/c1ccc2sccc2c1` [Compound 13, 3-(5-Benzo[b]thienyl)-1-(2-ethoxyphenyl)-2-propen-1-one] gave a melting point of 104 to 106 °C. Further, in the data set with MEC1 (Homo sapiens, MEC1, 48 h), the IC50 came to 0.34 µM. The same compound yielded an IC50 in the data set on M2-10B4 (Mus musculus, M210B4, 48 h) of 21.1 µM. Also, it took 9.05 µM to reach half-maximal inhibition in the data set on U-2940 (Homo sapiens, U-2940, 48 h) (IC50). The compound also displayed an IC50 in the data set on OCI-Ly7 (Homo sapiens, OCI-Ly7, 48 h) of 0.34 µM.
As for `CCOc1ccccc1C(=O)/C=C/c1csc2ccccc12` [Compound 14, 3-(1-Benzothien-3-yl)-1-(2-ethoxyphenyl)-2-propen-1-one], the IC50 with MEC1 (Homo sapiens, MEC1, 48 h) was determined as 0.17 µM; in the data set on M2-10B4 (Mus musculus, M210B4, 48 h) it was 8.2 µM; in the data set on U-2940 (Homo sapiens, U-2940, 48 h), 0.86 µM; in the data set with OCI-Ly7 (Homo sapiens, OCI-Ly7, 48 h) it was 0.1 µM.

In general, IC50 refers to the concentration that inhibits the measured activity by half. A higher IC50 goes with a need for much substance. In general, melting point refers to the temperature of the solid-liquid transition.
